Test results taken from ChEMBL document CHEMBL1201862, “PubChem BioAssay data set” (2004).
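Protocol summary: plate cells (96-well), add compound at 5 concentrations, incubate 48 h, interpolate endpoints linearly. The concentration for 50% growth inhibition is given as GI50.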 The source made the active and inactive calls. Cut-off read from the data, not from the text of the source: active = GI50 up to about 1.1 µM and inactive = higher.

Columns and labels:
Test in all cases: NCI anticancer screen, dose series, 48 h
786-0 = system: 786-0
A549 = system: A549
DU-145 = system: DU-145
EKVX = system: EKVX
HCT-116 = system: HCT-116
HL-60 = system: HL-60
IGROV-1 = system: IGROV-1
M14 = system: M14
MDA-N = system: MDA-N
MOLT-4 = system: MOLT-4
Malme-3M = system: Malme-3M
NCI-H226 = system: NCI-H226
NCI-H23 = system: NCI-H23
NCI-H522 = system: NCI-H522
OVCAR-4 = system: OVCAR-4
OVCAR-5 = system: OVCAR-5
RXF 393 = system: RXF 393
SK-OV-3 = system: SK-OV-3
SN12C = system: SN12C
UO-31 = system: UO-31

SMILES	GI50 (786-0)	GI50 (A549)	GI50 (DU-145)	GI50 (EKVX)	GI50 (HCT-116)	GI50 (HL-60)	GI50 (IGROV-1)	GI50 (M14)	GI50 (MDA-N)	GI50 (MOLT-4)	GI50 (Malme-3M)	GI50 (NCI-H226)	GI50 (NCI-H23)	GI50 (NCI-H522)	GI50 (OVCAR-4)	GI50 (OVCAR-5)	GI50 (RXF 393)	GI50 (SK-OV-3)	GI50 (SN12C)	GI50 (UO-31)
[O-][S+](c1ccc(Cl)cc1)c1ccccc1C1=NCCN1 (stereo not given)	> 100 µM (inactive)	> 100 µM (inactive)	> 100 µM (inactive)	> 100 µM (inactive)	> 100 µM (inactive)	> 100 µM (inactive)	> 100 µM (inactive)	> 100 µM (inactive)	> 100 µM (inactive)	> 100 µM (inactive)	> 100 µM (inactive)	> 100 µM (inactive)	> 100 µM (inactive)	> 100 µM (inactive)	> 100 µM (inactive)	> 100 µM (inactive)	> 100 µM (inactive)	> 100 µM (inactive)	> 100 µM (inactive)	> 100 µM (inactive)
COC(=O)[C@H](CC(C)C)NC1=C(Cl)C(=O)c2c(O)ccc(O)c2C1=O	6.97 µM (inactive)	7.24 µM (inactive)	> 10 µM (inactive)	> 10 µM (inactive)	2.46 µM (inactive)	8.02 µM (inactive)	> 10 µM (inactive)	3.45 µM (inactive)	8.73 µM (inactive)	3.52 µM (inactive)	0.887 µM (active)	> 10 µM (inactive)	6.53 µM (inactive)	> 10 µM (inactive)	> 10 µM (inactive)	> 10 µM (inactive)	> 10 µM (inactive)	> 10 µM (inactive)	> 10 µM (inactive)	–
O=C(O)c1ccc(C2=Nc3cccc4cccc(c34)N2)cc1	> 100 µM (inactive)	> 100 µM (inactive)	> 100 µM (inactive)	> 100 µM (inactive)	> 100 µM (inactive)	19.6 µM (inactive)	> 100 µM (inactive)	> 100 µM (inactive)	> 100 µM (inactive)	25.4 µM (inactive)	> 100 µM (inactive)	> 100 µM (inactive)	> 100 µM (inactive)	82.6 µM (inactive)	> 100 µM (inactive)	–	> 100 µM (inactive)	> 100 µM (inactive)	> 100 µM (inactive)	> 100 µM (inactive)
Cc1ccc(C(=O)O)c(CC2Cc3c(C)cccc3C2=O)c1 (stereo not given)	> 100 µM (inactive)	> 100 µM (inactive)	> 100 µM (inactive)	> 100 µM (inactive)	> 100 µM (inactive)	> 100 µM (inactive)	> 100 µM (inactive)	> 100 µM (inactive)	> 100 µM (inactive)	> 100 µM (inactive)	> 100 µM (inactive)	> 100 µM (inactive)	> 100 µM (inactive)	> 100 µM (inactive)	> 100 µM (inactive)	> 100 µM (inactive)	> 100 µM (inactive)	> 100 µM (inactive)	> 100 µM (inactive)	> 100 µM (inactive)
CC(C)C(C/C=C1/CC(CO)(COC(=O)C(C)(C)C)OC1=O)C(C)C (stereo not given)	3.23 µM (inactive)	1.09 µM (active)	11.1 µM (inactive)	8.17 µM (inactive)	14.3 µM (inactive)	0.105 µM (active)	16.2 µM (inactive)	11.7 µM (inactive)	4.3 µM (inactive)	0.514 µM (active)	3.62 µM (inactive)	7.57 µM (inactive)	9.51 µM (inactive)	12.6 µM (inactive)	16.6 µM (inactive)	11.6 µM (inactive)	15.6 µM (inactive)	16.7 µM (inactive)	11.1 µM (inactive)	4.07 µM (inactive)
COC(OC)C1(c2ccccc2)Oc2ccccc2C1=O (stereo not given)	> 100 µM (inactive)	> 100 µM (inactive)	> 100 µM (inactive)	> 100 µM (inactive)	> 100 µM (inactive)	> 100 µM (inactive)	> 100 µM (inactive)	> 100 µM (inactive)	> 100 µM (inactive)	68.7 µM (inactive)	> 100 µM (inactive)	> 100 µM (inactive)	50.1 µM (inactive)	> 100 µM (inactive)	> 100 µM (inactive)	> 100 µM (inactive)	> 100 µM (inactive)	> 100 µM (inactive)	> 100 µM (inactive)	–
Cc1cc(S(=O)(=O)NC2=Nc3cccc(F)c3CN2)c(S)cc1Cl	47.5 µM (inactive)	35.2 µM (inactive)	74.5 µM (inactive)	75 µM (inactive)	38.7 µM (inactive)	96.8 µM (inactive)	36.2 µM (inactive)	40 µM (inactive)	66.4 µM (inactive)	49.3 µM (inactive)	> 100 µM (inactive)	> 100 µM (inactive)	–	52.6 µM (inactive)	68.1 µM (inactive)	> 100 µM (inactive)	> 100 µM (inactive)	–	> 100 µM (inactive)	87.5 µM (inactive)
